Earlier results on one compound are cited in US20030103955A1 (priority 2000, published 2003).

SMILES strings stand for the structures.

The conditions of series [1]: octanol/buffer phosphate, ph=7.4.
In the next series the test system is cycloxygenase. To be noted: with reduction of production of tissue prostaglandines PGF2 and PGE2.
The test system of series [2] is arthritis induced by adjuvant. To be noted: compared with aspirin.

Take `O=C(O)Cc1ccccc1Nc1c(Cl)cccc1Cl` [Diclofenac]: the partition coefficient in series [1] is reported as 13.0. Also, the activity of cycloxygenase result with cycloxygenase is “inhibits the activity of cycloxygenase”. Moreover, the anti-inflammatory effect result in series [2] is “higher than that of aspirin”.
